Results published in patent US9394314B2, “8′-hydroxy-dihydroergotamine compounds and compositions” (priority 2012, dated 2016).

Key:
[1] = cited from earlier work
[2] = subcutaneously, concentration 1.5 mM; cited from earlier work
[3] = target: T1, human 5-HT1D receptor (Homo sapiens, UniProt P28221); assay: Radioligand binding assay (competition and kinetics), CHO-K1 membranes
T1 construct: purchased Euroscreen; host or cells: CHO-K1
Description: (§1) For kinetics of radioligand competitive binding, serial dilutions were performed from master solution in 100% DMSO to obtain intermediate concentrations 200-fold higher than the concentrations to be tested. Each test sample was diluted 100-fold in the assay buffer and dispensed into the test plate.
5-HT1D Radioligand Binding Assay
Assay buffer: 50 mM Tris (pH 7.4), 4 mM CaCl2, 0.1% ascorbic acid
(§2) Washing buffer: 50 mM Tris (pH 7.4)
Membrane: recombinant CHO-K1-5-HT1D membranes thawed on ice and diluted in assay buffer (10 μg/well)
Ligand: 5-HT (Sigma, H-9523)
(§3) Determination of IC50 and Ki constant for each test compound. […] After washing the filters 5 times with 0.5 mL of ice-cold washing buffer, 50 μL of Microscint 20 (Packard) were added to the filters and the plates were incubated 15 min on an orbital shaker and then counted for 1 min/well. […]
(§4) Determination of kon and koff constants for each test compound. Each compound was first assessed in a pilot experiment to evaluate its effect on the kinetic binding of each receptor-radioligand pair. […] After washing the filters 5 times with 0.5 mL of ice-cold washing buffer, 50 μL of Microscint 20 (Packard) were added to the filters and the plates were incubated 15 min on an orbital shaker and then counted for 1 min/well.

[4] = target: T2, human D2L receptor (Homo sapiens, UniProt P14416); assay: as above
T2 construct: purchased Euroscreen; host or cells: CHO-K1
T2 sequence (P14416 whole entry): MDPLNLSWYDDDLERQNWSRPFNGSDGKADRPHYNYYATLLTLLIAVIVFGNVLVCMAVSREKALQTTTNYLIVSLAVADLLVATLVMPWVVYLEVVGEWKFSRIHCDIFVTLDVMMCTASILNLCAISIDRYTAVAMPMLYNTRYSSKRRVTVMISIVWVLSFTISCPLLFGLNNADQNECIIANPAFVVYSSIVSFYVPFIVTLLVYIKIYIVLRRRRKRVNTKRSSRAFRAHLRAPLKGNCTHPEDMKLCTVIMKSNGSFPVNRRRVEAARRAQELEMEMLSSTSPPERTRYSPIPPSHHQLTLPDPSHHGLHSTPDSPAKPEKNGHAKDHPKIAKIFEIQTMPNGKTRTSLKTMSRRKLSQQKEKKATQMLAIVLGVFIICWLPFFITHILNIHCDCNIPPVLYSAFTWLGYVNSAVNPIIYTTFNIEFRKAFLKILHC
Description: as §1
D2L Radioligand Binding Assay
Assay buffer: 25 mM HEPES (pH 7.4), 5 mM MgCl2, 1 mM CaCl2, BSA protease free 0.5%
Washing buffer: 25 mM HEPES (pH 7.4), 5 mM MgCl2, 1 mM CaCl2
Membrane: recombinant CHO-K1-D2L membranes thawed on ice and diluted in assay buffer (2 μg/well)
Ligand: Risperidone (Tocris Bioscience, 2865) […]
as §3
Determination of kon and koff constants for each test compound. Each compound was first assessed in a pilot experiment to evaluate its effect on the kinetic binding of each receptor-radioligand pair. […] After washing the filters 5 times with 0.5 mL of ice-cold washing buffer, 50 μL of Microscint 20 (Packard) were added to the filters and the plates were incubated 15 min on an orbital shaker and then counted for 1 min/well. […]

[5] = target: T3, human 5-HT1B receptor (Homo sapiens, UniProt P28222); assay: as above
T3 construct: purchased Euroscreen; host or cells: CHO-K1
T3 sequence (P28222 whole entry): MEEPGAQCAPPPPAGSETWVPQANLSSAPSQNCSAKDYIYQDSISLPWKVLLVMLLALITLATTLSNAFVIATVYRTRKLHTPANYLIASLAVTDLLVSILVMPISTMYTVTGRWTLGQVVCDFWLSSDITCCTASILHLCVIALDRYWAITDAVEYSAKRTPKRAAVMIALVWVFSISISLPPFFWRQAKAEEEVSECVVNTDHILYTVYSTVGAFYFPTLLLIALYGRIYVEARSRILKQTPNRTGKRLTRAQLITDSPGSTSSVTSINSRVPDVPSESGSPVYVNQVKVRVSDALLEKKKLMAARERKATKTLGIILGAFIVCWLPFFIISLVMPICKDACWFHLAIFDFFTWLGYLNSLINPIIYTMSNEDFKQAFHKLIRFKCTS
Description: as §1
5-HT1B Radioligand Binding Assay
as §2
Ligand: 5-CT (Tocris, 0458)
Determination of IC50 and Ki constant for each test compound. […] The samples were incubated for 60 min (or 4 hours for a second experiment on 5-HT2B receptors) at a temperature optimized for each receptor and then filtered over a filter plate. After washing the filters 5 times with 0.5 mL of ice-cold washing buffer, 50 μL of Microscint 20 (Packard) were added to the filters and the plates were incubated 15 min on an orbital shaker and then counted for 1 min/well. The test compounds were tested in duplicate at the nanomolar concentrations reported below in Table 5.
as §4

T1 sequence (P28221 whole entry): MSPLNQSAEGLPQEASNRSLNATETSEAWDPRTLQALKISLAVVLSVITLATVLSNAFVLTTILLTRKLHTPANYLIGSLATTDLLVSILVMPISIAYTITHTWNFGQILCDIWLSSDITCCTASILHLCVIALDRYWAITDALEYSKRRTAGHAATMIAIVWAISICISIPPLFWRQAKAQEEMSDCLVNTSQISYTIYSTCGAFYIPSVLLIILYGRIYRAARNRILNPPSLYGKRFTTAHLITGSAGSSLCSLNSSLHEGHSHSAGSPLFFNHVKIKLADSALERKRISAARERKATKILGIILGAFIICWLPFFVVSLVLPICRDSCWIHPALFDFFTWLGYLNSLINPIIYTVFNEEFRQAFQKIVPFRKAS

SMILES	fraction of administered dose extracted in the urine ([1]; IM administered dose)	total DHE metabolites as share of plasma AUC ([1]; nasal administration of DHE)	treated patients with nausea [2]	Avg Koff [3]	Avg Koff [4]	concentration of 8′-OH DHE metabolite relative to parent DHE ([1]; previous studies)	Avg Koff [5]
CN1C[C@H](C(=O)N[C@]2(C)O[C@@]3(O)[C@@H]4CCCN4C(=O)[C@H](Cc4ccccc4)N3C2=O)C[C@@H]2c3cccc4[nH]cc(c34)C[C@H]21 [DHE, Dihydroergotamine]	6-7%	20-30%	~16%	–	–	–	–
CN1C[C@H](C(=O)N[C@]2(C)O[C@@]3(O)[C@@H]4CCC(O)N4C(=O)[C@H](Cc4ccccc4)N3C2=O)C[C@@H]2c3cccc4[nH]cc(c34)C[C@H]21 (stereo partly shown) [8′-OH DHE, 8′-Hydroxy-Dihydroergotamine]	–	–	–	0.000175 s⁻¹	0.00127 s⁻¹	5 to 7 times	9.83e-05 s⁻¹
